# Biological target: T1, human calcitonin-2 receptor (hCT2R) (Homo sapiens, UniProt P30988)
# T1 construct: expressed in transfected cells; host or cells: Chinese hamster ovary (CHO) cells co-transfected with a 6CRE-luciferase reporter; receptor cDNA cloned from the MCF7 cell line
# T1 sequence (P30988 25-474): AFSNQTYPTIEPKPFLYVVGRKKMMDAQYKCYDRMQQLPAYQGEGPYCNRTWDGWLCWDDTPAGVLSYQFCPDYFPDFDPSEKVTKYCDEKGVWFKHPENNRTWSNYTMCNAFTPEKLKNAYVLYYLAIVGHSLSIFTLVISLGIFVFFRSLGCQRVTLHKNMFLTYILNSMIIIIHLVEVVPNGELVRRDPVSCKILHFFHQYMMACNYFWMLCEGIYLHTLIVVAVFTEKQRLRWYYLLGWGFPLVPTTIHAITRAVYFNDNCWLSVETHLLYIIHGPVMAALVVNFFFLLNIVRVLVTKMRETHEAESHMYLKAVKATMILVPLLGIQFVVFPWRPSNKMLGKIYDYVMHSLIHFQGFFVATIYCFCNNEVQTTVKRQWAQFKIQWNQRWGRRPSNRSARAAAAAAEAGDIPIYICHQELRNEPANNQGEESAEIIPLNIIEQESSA
# Assay: HCT2R CRE-luc reporter assay
# Type: cell-based
# Conditions: agonist activity; CHO-6CRE-luciferase cells co-transfected with hCT2R
# Protocol: The compounds of the present invention elicit important and measurable pharmacological responses. As is to be expected, the efficacy of any compound will vary depending upon the particular assay and the particular compound tested.
# All recombinant cell line human calcitonin receptor assays were carried out with the human receptor corresponding to GeneBank Accession Number X69920, [See: Molecular Pharmacology 46 (2):246–255, 1994, Cloning and characterization of an abundant subtype of the human calcitonin receptor] cloned from the MCF7 cell line (American Type Tissue Collection, Manassas, Va., USA, Catalog # HTB-22). Human calcitonin receptor (hCT2R) was cloned as a HindIII fragment into plasmid BS SKII. Chinese hamster ovary cells were co-transfected with a 6CRE-luciferase reporter system and hCTR2. HEK cells were transfected with hCTR2.
# CHO-6CRE-luciferase cells with or without co-expressed hCTR2 were grown in suspension in commercially available cell culture medium supplemented with 2 mM L-glutamine and 5% fetal bovine serum (FBS). Sixteen hours before each assay, cells were collected and resuspended at 1,000,000 cells/ml in media without FBS. Cells were cultured in spinner flasks at 37° C. in an atmosphere of 5% CO2. At the time of the assay, cells were pelleted by centrifugation and resuspended in media without FBS at a concentration of 250,000 cells/ml. The cell suspension was pipetted into black 96-well microtiter plates (25,000 cells/well) containing test compounds. After a four-hour incubation at 37° C., media was aspirated, followed by addition of 50 microliters of LucLite and PBS (1:1) containing 1 mM CaCl2 and 1 mM MgCl2. The plates were sealed and incubated for 20 minutes in the dark. Luminescent responses were measured using a Packard TopCount.
# Structure activity studies were performed on CHO-6CRE-luciferase cells with or without co-transfected hCT2R. Forty-eight hours before each assay, cells were removed with trypsin and plated in 96-well microtiter plates at a concentration of 25–100,000 cells/well. Sixteen hours before each assay, FBS-containing media was removed and replaced with media without FBS. Compounds were added and incubated for four hours at 37° C. After incubation, media was aspirated and 50 microliters of LucLite in PBS (1:1) containing 1 mM CaCl2 and 1 mM MgCl2 were added to each well. Plates were sealed and incubated for 20 minutes in the dark before quantification of luminescence on a Packard TopCount.
# Concentration-response curves were calculated and potencies were reported as the concentration of compounds producing half-maximal responses (EC50) or the negative log of the concentration of compounds producing half-maximal responses (pEC50).
row,EC50,Compound
1,10 to 100 nM,"Ethyl (9aS)-4-(4-{[(2-furylmethyl)amino]carbonyl}phenyl)-5-oxo-2-[2-(3-pyridinyl)ethyl]-7,8,9,9a-tetrahydro-5H-pyrido[2,3-α]pyrrolizine-3-carboxylate [Example 33]"
2,≤ 10 nM,"CCOC(=O)c1c(CCc2ccc(F)cc2)nc2c(c1-c1ccc(C(=O)NCc3ccco3)cc1)c(=O)n1n2CCC1 [Example 8, Ethyl 2-[2-(4-fluorophenyl)ethyl]-4-(4-{[(2-furylmethyl)amino]carbonyl}phenyl)-5-oxo-8,9-dihydro-5H,7H-pyrazolo[1′,2′:1,2]pyrazolo[3,4-b]pyridine-3-carboxylate]"
3,≥ 1000 nM,"O=C(N[C@@H]1CCc2ccccc21)c1ccc(-c2c3c(nc4c2C(=O)N2CCC[C@@H]42)CC(c2ccc(F)cc2)CC3=O)cc1 (stereo partly drawn) [Example 32, 4-[(3aS)-6-(4-Fluorophenyl)-8,10-dioxo-2,3,3a,5,6,7,8,10-octahydro-1H-pyrrolizino[1,2-b]quinolin-9-yl]-N-[(1R)-2,3-dihydro-1H-inden-1-yl]benzamide]"
4,100 to 1000 nM,"CCOC(=O)c1c(Cc2ccsc2)nc2c(c1-c1ccc(C(=O)NCc3ccco3)cc1)C(=O)N1CCCC21 [Example 51, Ethyl (9aS)-4-(4-{[(2-furylmethyl)amino]carbonyl}phenyl)-5-oxo-2-(3-thienylmethyl)-7,8,9,9a-tetrahydro-5H-pyrido[2,3-α]pyrrolizine-3-carboxylate]"
5,≤ 10 nM,"CCOC(=O)c1c(CCc2ccc(F)cc2)nc2c(c1-c1cc(C(=O)NC3CCc4ccccc43)cs1)C(=O)N1CCC[C@@H]21 (stereo partly drawn) [Example 15, Ethyl(9aS)-4-{4-[(2,3-dihydro-1H-inden-1-ylamino)carbonyl]-2-thieny}-2-[2-(4-fluorophenyl)ethyl]-5-oxo-7,8,9,9a-tetrahydro-5H-pyrido[2,3-a]pyrrolizine-3-carboxylate]"
6,≥ 1000 nM,"CCOC(=O)c1c(C(F)(F)F)nc2c(c1-c1ccc(C(=O)NCc3cccc(F)c3)cc1)c(=O)n1n2CCC1 [Example 10, Ethyl 4-(4-{[(3-fluorobenzyl)amino]carbonyl}phenyl)-5-oxo-2-(trifluoromethyl)-8,9-dihydro-5H,7H-pyrazolo[1′,2′:1,2]pyrazolo[3,4-b]pyridine-3-carboxylate]"
7,100 to 1000 nM,"CCOC(=O)c1c(CCc2ccc(C(F)(F)F)cc2)nc2c(c1-c1ccc(C(=O)NCCCn3ccnc3)cc1)C(=O)N1CCC[C@@H]21 [Example 41, Ethyl (9aS)-4-[4-({[3-(1H-imidazol-1-yl)propyl]amino}carbonyl)phenyl]-5-oxo-2-{2-[4-(trifluoromethyl)phenyl]ethyl}-7,8,9,9a-tetrahydro-5H-pyrido[2,3-α]pyrrolizine-3-carboxylate]"
8,≤ 10 nM,"CCOC(=O)c1c(CCc2ccc(F)cc2)nc2c(c1-c1cc(C(=O)NC3CCc4ccccc43)co1)C(=O)N1CCC[C@@H]21 (stereo partly drawn) [Example 17, Ethyl(9aS)-4-{4-[(2,3-dihydro-1H-inden-1-ylamino)carbonyl]-2-furyl}-2-[2-(4-fluorophenyl)ethyl]-5-oxo-7,8,9,9a-tetrahydro-5H-pyrido[2,3-a]pyrrolizine-3-carboxylate]"
9,≤ 10 nM,"CCOC(=O)c1c(CCc2ccc(F)cc2)nc2c(c1-c1ccc(C(=O)NCc3ccco3)s1)c(=O)n1n2CCC1 [Example 9, Ethyl 2-[2-(4-fluorophenyl)ethyl]-4-(5-{[(2-furylmethyl)amino]carbonyl}-2-thienyl)-5-oxo-8,9-dihydro-5H,7H-pyrazolo[1′,2′:1,2]pyrazolo[3,4-b]pyridine-3-carboxyl]"
10,10 to 100 nM,"CC(=O)c1c(CCc2ccc(F)cc2)nc2c(c1-c1ccc(C(=O)NCc3ccco3)cc1)C(=O)N1CCC[C@@H]21 [Example 29, 4-{(9aS)-3-acetyl-2-[2-(4-fluorophenyl)ethyl]-5-oxo-7,8,9,9a-tetrahydro-5H-pyrido[2,3-α]pyrrolizin-4-yl}-N-(2-furylmethyl)benzamide]"
11,≤ 10 nM,"CCOC(=O)c1c(CCc2ccc(C(F)(F)F)cc2)nc2c(c1-c1ccc(C(=O)NCc3ccco3)cc1)C(=O)N1CSC[C@@H]21 [Example 34, Ethyl (9aR)-4-(4-{[(2-furylmethyl)amino]carbonyl}phenyl)-5-oxo-2-{2-[4-(trifluoromethyl)phenyl]ethyl}-9,9a-dihydro-5H-[1,3]thiazolo[3′,4′:1,2]pyrrolo[3,4-b]pyridine-3-carboxylate]"
12,10 to 100 nM,"CCOC(=O)c1c(CCc2ccc(C(F)(F)F)cc2)nc2c(c1-c1ccc(C(=O)NCc3ccco3)cc1)C(=O)N1CS(=O)(=O)C[C@@H]21 [Example 35, Ethyl (9aR)-4-(4-{[(2-furylmethyl)amino]carbonyl}phenyl)-5-oxo-2-{2-[4-(trifluoromethyl)phenyl]ethyl}-9,9a-dihydro-5H-[1,3]thiazolo[3′,4′:1,2]pyrrolo[3,4-b]pyridine-3-carboxylate 8,8-dioxide]"
13,≤ 10 nM,"CCOC(=O)c1c(Cc2ccc(F)cc2)nc2c(c1-c1ncc(C(=O)N[C@@H]3CCc4ccccc43)s1)C(=O)N1CCC[C@@H]21 [Example 19, Ethyl (9aS)-4-(5-{[(1R)-2,3-dihydro-1H-inden-1-ylamino]carbonyl}-1,3-thiazol-2-yl)-2-(4-fluorobenzyl)-5-oxo-7,8,9,9a-tetrahydro-5H-pyrido[2,3-a]pyrrolizine-3-carboxylate]"
14,100 to 1000 nM,"CCOC(=O)c1c(CCc2ccc(C(F)(F)F)cc2)nc2c(c1C1CC1C(=O)NCc1ccccc1)C(=O)N1CCC[C@@H]21 (stereo partly drawn) [Example 3, Ethyl (9aS)-4-{2-[(benzylamino)carbonyl]cyclopropyl}-5-oxo-2-{2-[4-(trifluoromethyl)phenyl]ethyl}-7,8,9,9a-tetrahydro-5H-pyrido[2,3-a]pyrrolizine-3-carboxylate]"
15,100 to 1000 nM,"CCOC(=O)c1c(CCc2ccc(C(F)(F)F)cc2)nc2c(c1-c1ccc(C(=O)NCCc3cnc[nH]3)cc1)C(=O)N1CCC[C@@H]21 [Example 42, Ethyl (9aS)-4-[4-({[2-(1H-imidazol-5-yl)ethyl]amino}carbonyl)phenyl]-5-oxo-2-{2-[4-(trifluoromethyl)phenyl]ethyl}-7,8,9,9a-tetrahydro-5H-pyrido[2,3-α]pyrrolizine-3-carboxylate]"
16,≥ 1000 nM,"Ethyl(9aS)-4-[3-({[2-(2-furyl)ethyl]amino}carbonyl)phenyl]-5-oxo-2-{2-[4-(trifluoromethyl)phenyl]ethyl}-7,8,9,9a-tetrahydro-5H-pyrido[2,3-a]pyrrolizine-3-carboxylate [Example 13]"
17,≥ 1000 nM,"CCOC(=O)c1c(CCc2ccc(F)cc2)cc2c(c1-c1ccc(C(=O)O)cc1)C(=O)N1CCC[C@@H]21 [Example 49, 4-{(9bS)-7-(ethoxycarbonyl)-8-[2-(4-fluorophenyl)ethyl]-5-oxo-2,3,5,9b-tetrahydro-1H-pyrrolo[2,1-α]isoindol-6-yl}benzoic acid]"
18,100 to 1000 nM,"CCC(=O)Nc1c(CCc2ccc(C(F)(F)F)cc2)nc2c(c1-c1ccc(C(=O)NCc3ccco3)cc1)C(=O)N1CCC[C@@H]21 [Example 25, 4-((9aS)-3-[(Ethylcarbonyl)amino]-5-oxo-2-{2-[4-(trifluoromethyl)phenyl]ethyl}-7,8,9,9a-tetrahydro-5H-pyrido[2,3-α]pyrrolizin-4-yl)-N-(2-furylmethyl)benzamide]"
19,10 to 100 nM,"CCOC(=O)c1c(Cc2ccc(F)cc2F)nc2c(c1-c1ccc(C(=O)NN3CCc4ccccc43)cc1)C(=O)N1CCC[C@@H]21 [Example 45, Ethyl (9aS)-2-(2,4-difluorobenzyl)-4-{4-[(2,3-dihydro-1H-indol-1-ylamino)carbonyl]phenyl}-5-oxo-7,8,9,9a-tetrahydro-5H-pyrido[2,3-α]pyrrolizine-3-carboxylate]"

# From patent US7189851B2, “Condensed heterocyclic compounds as calcitonin agonists” (SmithKline Beecham Corporation, priority 2002, dated 2007)
